Laboratory results reported in paper PMC11707430, “Novel antibiotics against Staphylococcus aureus without detectable resistance by targeting proton motive force and FtsH” (MedComm, 2025).
Converted amounts (≈) assume the structure as drawn. Where two headings read alike, the source gives them in different places.

Experiments:
[1] = Pharmacokinetics determination; assay type: in vivo; parameters: bioavailability / Vd / clearance / AUC(0-t) / AUC(0-inf) / MRT last / MRT inf: dose or concentration left out as unconfirmed; details: female, ICR, mouse, plasma, mice; for MRT last: read-out: MRT(0-t); for MRT inf: read-out: MRT(0-∞)
Method: Pharmacokinetics determination. […] Blood samples were extracted from the jugular vein at intervals of 0.083, 0.25, 0.5, 1, 2, 4, 8, and 24h post-treatment, respectively. The plasma was separated following centrifugation at 6800 × g for 6 min. Concentrations of these compounds in the plasma were quantified by using the LC-MS/MS-04 instrument (TQ4000, JEOL, Japan), and pharmacokinetic parameters were calculated by using Phoenix WinNonlin 7.0 software (Certara, Princeton, NJ, USA)^37.

S. aureus = experiment: Drug combination by checkerboard dilution assay; assay type: cell-based; details: STK848198 with SM, TOB, AMP, fosfomycin, SIS, gentamycin
Method: Drug combination assay. The potential combinational antimicrobial effects between individual drugs were determined by checkerboard dilution assay. Briefly, overnight cultured S. aureus was diluted in MH broth to ~1× 10^6 CFU/mL. Compounds were two-fold diluted by MH broth, then 50 μL of each compound were added to each well vertically and horizontally, respectively, in a 96-well cell culture plate. […] The fractional inhibitory concentration index (FICI) was calculated as (MICA in combination/MICA alone) + (MICB in combination/MICB alone)^20.

S. aureus ATCC 43300 = experiment: Concentration-dependent growth inhibition; assay type: cell-based
Method: Concentration-dependent growth inhibition. S. aureus was cultured in TSB to log phase, and diluted with MH broth to ~2×10^6 CFU/mL. One hundred microliters of the bacterial suspension with an equal volume of 2-fold diluted compounds were added in a 96-well cell culture plate. After incubation at 37 ℃ for 16h, the bacterial growth was quantified by measuring the OD value at 630nm (OD630nm).

WP2uvrA (pKM101) = experiment: Ames test; assay type: cell-based, E. coli
Method: Ames test. Genotoxicity of the compounds was determined by Ames Kit (IPHASE, Beijing, China) containing Salmonella typhimurium (TA97a, TA98, TA100, and TA1535) and E. coli WP2 uvrA (pKM101). Diclofenac and 2-aminofluorene were used as positive controls for TA97a and TA98. Methyl methanesulfonate and 2-aminofluorene were used as positive controls for TA100. Methyl methanesulfonate and 2-aminoanthracene were used as positive controls for WP2 uvrA (pKM101). NaN3 and 2-aminoanthracene were used as positive controls for TA1535. The bottom and top layer culture medium, and S9 mixed solution were prepared according to the manufacturer’s instructions. After incubation at 37℃ for 48h, the colonies were counted.

S. epidermidis = experiment: MIC determination by microbroth dilution; assay type: cell-based; details: Staphylococcus epidermidis
Method: (§1) Minimal inhibitory concentration (MIC) determination. The detection of MIC was performed by the microbroth dilution method with reference to the previously report by Wang et al^2. Briefly, the fresh bacterial suspension was adjusted to a McF standard equivalent of 0.5 (~1.5 × 10^8 CFU/mL) and then 100-fold diluted with MH broth. Fifty microliters of bacterial suspension with equal volume of serially diluted compounds (1-128 µg/mL) were added into a 96-well cell plate (Corning Costar, the United States) and incubated at 37°C for 16-18 h. The bacterial suspension without compounds was used as a negative control. The lowest concentration that inhibited visible bacterial growth was considered as the value of MIC.

E. coli = experiment: MIC determination by microbroth dilution; assay type: cell-based; details: Escherichia coli, ATCC25922; ATCC 25922
Method: as §1

E. faecalis = experiment: MIC determination by microbroth dilution; assay type: cell-based; details: Enterococcus faecalis
Method: as §1

E. faecium = experiment: MIC determination by microbroth dilution; assay type: cell-based; details: Enterococcus faecium
Method: as §1

K. pneumoniae = experiment: MIC determination by microbroth dilution; assay type: cell-based; details: Klebsiella pneumoniae, ATCC700603; ATCC 700603
Method: as §1

A. baumannii = experiment: MIC determination by microbroth dilution; assay type: cell-based; details: Acinetobacter baumannii, ATCC19606; ATCC 19606
Method: as §1

P. aeruginosa = experiment: MIC determination by microbroth dilution; assay type: cell-based; details: Pseudomonas aeruginosa, PAO1
Method: as §1

Question: Which AUC(0-inf) ([1]; ip) does the source give for Cc1nc2c(-c3ccc(Cl)cc3)cnn2c(O)c1Cc1ccccc1 [STK848198] here?
Answer: 38300 ± 7020 ng·h/mL

Question: And the AUC(0-t) ([1]; ip)?
Answer: 38300 ± 7020 ng·h/mL

Question: What about the Cmax ([1]; ip) of the same compound?
Answer: 39000 ± 5470 ng/mL

Question: What about the bioavailability ([1]; ip) of the same compound?
Answer: 87%

Question: And the MRT last ([1]; ip, i.p.)?
Answer: 1.02 ± 0.16 h

Question: What about the MRT inf ([1]; ip, i.p.) of the same compound?
Answer: 1.17 ± 0.21 h

Question: And the half-life ([1]; ip, i.p., read-out: T1/2 (converted))?
Answer: 3.15 ± 2.38 h

Question: And the Tmax ([1]; ip, i.p., read-out: Tmax)?
Answer: 0.33 ± 0.14 h

Question: What about the AUC(0-inf) ([1]; iv) of the same compound?
Answer: 22400 ± 1990 ng·h/mL

Question: What about the AUC(0-t) ([1]; iv) of the same compound?
Answer: 22000 ± 1960 ng·h/mL

Question: And the C0 ([1]; iv)?
Answer: 51900 ± 1010 ng/mL

Question: What about the Cmax ([1]; iv) of the same compound?
Answer: 40100 ± 2180 ng/mL

Question: What about the clearance ([1]; iv) of the same compound?
Answer: 7.48 ± 0.69 mL/min/kg

Question: What about the MRT last ([1]; iv, i.v.) of the same compound?
Answer: 0.67 ± 0.1 h

Question: And the MRT inf ([1]; iv, i.v.)?
Answer: 0.86 ± 0.05 h

Question: What about the half-life ([1]; iv, i.v., read-out: T1/2 (converted)) of the same compound?
Answer: 2.54 ± 0.7 h

Question: What about the Tmax ([1]; iv, i.v., read-out: Tmax) of the same compound?
Answer: 0.08 h

Question: What about the Vd ([1]; iv, i.v., read-out: Vss) of the same compound?
Answer: 0.38 ± 0.02 L/kg

Question: What about the Vd ([1]; iv, i.v., read-out: Vz) of the same compound?
Answer: 1.66 ± 0.57 L/kg

Question: And the Tmax ([1]; other: range over s.c., i.v., i.p. and p.o., 30 mg/kg, all the administration routes, read-out: T max (range))?
Answer: 0.08 to 0.33 h

Question: What about the half-life ([1]; other: range over s.c., i.v., i.p. and p.o., 30 mg/kg, all the administration routes, read-out: half-life (range)) of the same compound?
Answer: 2.54 to 7.65 h

Question: And the AUC(0-inf) ([1]; po)?
Answer: 17800 ± 10500 ng·h/mL

Question: What about the AUC(0-t) ([1]; po) of the same compound?
Answer: 17800 ± 10500 ng·h/mL

Question: And the Cmax ([1]; po)?
Answer: 18700 ± 3430 ng/mL

Question: What about the bioavailability ([1]; po) of the same compound?
Answer: 40.4%

Question: And the MRT last ([1]; po, p.o.)?
Answer: 1.62 ± 0.75 h

Question: And the MRT inf ([1]; po, p.o.)?
Answer: 2.21 ± 0.79 h

Question: What about the half-life ([1]; po, p.o., read-out: T1/2 (converted)) of the same compound?
Answer: 3.43 ± 1.53 h

Question: And the Tmax ([1]; po, p.o., read-out: Tmax)?
Answer: 0.25 h

Question: And the AUC(0-inf) ([1]; sc)?
Answer: 18000 ± 3640 ng·h/mL

Question: What about the AUC(0-t) ([1]; sc) of the same compound?
Answer: 18000 ± 3640 ng·h/mL

Question: What about the Cmax ([1]; sc) of the same compound?
Answer: 11600 ± 6890 ng/mL

Question: What about the bioavailability ([1]; sc) of the same compound?
Answer: 40.9%

Question: What about the MRT last ([1]; sc, s.c.) of the same compound?
Answer: 3.5 ± 1.22 h

Question: What about the MRT inf ([1]; sc, s.c.) of the same compound?
Answer: 5.19 ± 2.09 h

Question: What about the half-life ([1]; sc, s.c., read-out: T1/2 (converted)) of the same compound?
Answer: 7.65 ± 1.16 h

Question: What about the Tmax ([1]; sc, s.c., read-out: Tmax) of the same compound?
Answer: 0.33 ± 0.14 h

Question: And the FICI (S. aureus)?
Answer: ≤ 0.5

Question: And the “concentration at which growth inhibition was observed” value (S. aureus ATCC 43300)?
Answer: 0.25 ×MIC

Question: And the “CFU(x±SD)” value (WP2uvrA (pKM101); +S9, 25 μg/well)?
Answer: 29 ±4 CFU

Question: What about the “Fold Change” value (WP2uvrA (pKM101); +S9, 25 μg/well) of the same compound?
Answer: 0.9

Question: What about the “CFU(x±SD)” value (WP2uvrA (pKM101); +S9, 50 μg/well) of the same compound?
Answer: 26 ±4 CFU

Question: What about the “Fold Change” value (WP2uvrA (pKM101); +S9, 50 μg/well) of the same compound?
Answer: 0.8

Question: What about the “CFU(x±SD)” value (WP2uvrA (pKM101); +S9, 100 μg/well) of the same compound?
Answer: 26 ±3 CFU

Question: And the “Fold Change” value (WP2uvrA (pKM101); +S9, 100 μg/well)?
Answer: 0.8

Question: And the “CFU(x±SD)” value (WP2uvrA (pKM101); +S9, 200 μg/well)?
Answer: 29 ±3 CFU

Question: And the “Fold Change” value (WP2uvrA (pKM101); +S9, 200 μg/well)?
Answer: 0.9

Question: What about the “CFU(x±SD)” value (WP2uvrA (pKM101); +S9, 400 μg/well) of the same compound?
Answer: 28 ±3 CFU

Question: And the “Fold Change” value (WP2uvrA (pKM101); +S9, 400 μg/well)?
Answer: 0.9

Question: What about the “CFU(x±SD)” value (WP2uvrA (pKM101); -S9, 25 μg/well) of the same compound?
Answer: 22±2 CFU

Question: What about the “Fold Change” value (WP2uvrA (pKM101); -S9, 25 μg/well) of the same compound?
Answer: 1

Question: And the “CFU(x±SD)” value (WP2uvrA (pKM101); -S9, 50 μg/well)?
Answer: 23±4 CFU

Question: What about the “Fold Change” value (WP2uvrA (pKM101); -S9, 50 μg/well) of the same compound?
Answer: 1

Question: And the “CFU(x±SD)” value (WP2uvrA (pKM101); -S9, 100 μg/well)?
Answer: 21±1 CFU

Question: And the “Fold Change” value (WP2uvrA (pKM101); -S9, 100 μg/well)?
Answer: 0.9

Question: What about the “CFU(x±SD)” value (WP2uvrA (pKM101); -S9, 200 μg/well) of the same compound?
Answer: 24±3 CFU

Question: What about the “Fold Change” value (WP2uvrA (pKM101); -S9, 200 μg/well) of the same compound?
Answer: 1

Question: What about the “CFU(x±SD)” value (WP2uvrA (pKM101); -S9, 400 μg/well) of the same compound?
Answer: 23±1 CFU

Question: And the “Fold Change” value (WP2uvrA (pKM101); -S9, 400 μg/well)?
Answer: 1

Question: What about the MIC (S. epidermidis; ATCC12228, ATCC 12228) of the same compound?
Answer: 1 µg/mL (≈ 2.86 µM)

Question: What about the MIC (S. epidermidis; RP62A) of the same compound?
Answer: 1 µg/mL (≈ 2.86 µM)

Question: And the MIC (E. coli)?
Answer: > 32 µg/mL

Question: And the MIC (E. faecalis; ATCC29212, ATCC 29212)?
Answer: 4 µg/mL (≈ 11.4 µM)

Question: And the MIC (E. faecalis; ATCC51299, ATCC 51299, vancomycin resistant strain)?
Answer: 4 µg/mL (≈ 11.4 µM)

Question: And the MIC (E. faecium; ATCC19434, ATCC 19434)?
Answer: 8 µg/mL (≈ 22.9 µM)

Question: And the MIC (E. faecium; U101, vancomycin resistant strain)?
Answer: 4 µg/mL (≈ 11.4 µM)

Question: And the MIC (K. pneumoniae)?
Answer: > 32 µg/mL

Question: And the MIC (A. baumannii)?
Answer: > 32 µg/mL

Question: What about the MIC (P. aeruginosa) of the same compound?
Answer: > 32 µg/mL
